Measurements as given in the CheMixHub viscosity set.

Assay: xn = mol fraction of the nth substance listed

C1CC[C@H]2CCCC[C@H]2C1 + C1CC[C@H]2CCCC[C@@H]2C1
Settings	viscosity [mPa·s]
293.15 K, 101 kPa, x1 = 0.103	2.193
293.15 K, 101 kPa, x1 = 0.129	2.206
293.15 K, 101 kPa, x1 = 0.206	2.289
293.15 K, 101 kPa, x1 = 0.256	2.321
293.15 K, 101 kPa, x1 = 0.383	2.391
293.15 K, 101 kPa, x1 = 0.509	2.622
293.15 K, 101 kPa, x1 = 0.608	2.748
293.15 K, 101 kPa, x1 = 0.633	2.763
293.15 K, 101 kPa, x1 = 0.756	2.943
293.15 K, 101 kPa, x1 = 0.805	3.026
293.15 K, 101 kPa, x1 = 0.903	3.178
293.15 K, 101.3 kPa, x1 = 0.403	2.445
298.15 K, 100 kPa, x1 = 0.39	2.22
303.15 K, 101 kPa, x1 = 0.103	1.68
303.15 K, 101 kPa, x1 = 0.129	1.704
303.15 K, 101 kPa, x1 = 0.206	1.748
303.15 K, 101 kPa, x1 = 0.256	1.792
303.15 K, 101 kPa, x1 = 0.383	1.896
303.15 K, 101 kPa, x1 = 0.509	1.977
303.15 K, 101 kPa, x1 = 0.608	2.062
303.15 K, 101 kPa, x1 = 0.633	2.094
303.15 K, 101 kPa, x1 = 0.756	2.151
303.15 K, 101 kPa, x1 = 0.805	2.244
303.15 K, 101 kPa, x1 = 0.903	2.342
303.15 K, 101.3 kPa, x1 = 0.403	1.998
313.15 K, 101.3 kPa, x1 = 0.403	1.705
323.15 K, 100 kPa, x1 = 0.39	1.44
323.15 K, 101.3 kPa, x1 = 0.403	1.457

CCOC(=O)C(=O)OCC + CC(C)=O
303.15 K, 101 kPa
Settings	viscosity [mPa·s]
x1 = 0.0571	0.381
x1 = 0.1199	0.487
x1 = 0.1893	0.599
x1 = 0.2664	0.715
x1 = 0.3527	0.844
x1 = 0.4497	0.979
x1 = 0.5602	1.123
x1 = 0.6858	1.274
x1 = 0.8308	1.453

CCCCCCCCCCCCOS(=O)(=O)[O-].[Na+] + O
101.33 kPa
Settings	viscosity [mPa·s]
303.15 K, x1 = 0.000252	0.8085
308.15 K, x1 = 0.000324	0.7345
308.15 K, x1 = 0.000432	0.7465
313.15 K, x1 = 7.2e-05	0.6585

CCOC(=O)C(=O)OCC + CCCCO
303.15 K, 101.33 kPa
Settings	viscosity [mPa·s]
x1 = 0.1064	1.803
x1 = 0.1924	1.613
x1 = 0.2954	1.496
x1 = 0.3832	1.438
x1 = 0.5033	1.405
x1 = 0.6097	1.405
x1 = 0.6734	1.419
x1 = 0.7804	1.461
x1 = 0.9074	1.556

COCCO + c1ccccc1
viscosity [mPa·s]
Settings	298.15 K	303.15 K	308.15 K
101 kPa, x1 = 0.0543	0.624	–	0.541
101 kPa, x1 = 0.1499	0.669	–	0.571
101 kPa, x1 = 0.2235	0.708	–	0.598
101 kPa, x1 = 0.3508	0.788	–	0.654
101 kPa, x1 = 0.4496	0.862	–	0.707
101 kPa, x1 = 0.4961	0.902	–	0.735
101 kPa, x1 = 0.5462	0.947	–	0.768
101 kPa, x1 = 0.6455	1.049	–	0.842
101 kPa, x1 = 0.7524	1.18	–	0.938
101 kPa, x1 = 0.8509	1.323	–	1.043
101 kPa, x1 = 0.9558	1.505	–	1.177
101.33 kPa, x1 = 0.1174	–	0.599	–
101.33 kPa, x1 = 0.1933	–	0.628	–
101.33 kPa, x1 = 0.2642	–	0.659	–
101.33 kPa, x1 = 0.3837	–	0.728	–
101.33 kPa, x1 = 0.4988	–	0.807	–
101.33 kPa, x1 = 0.654	–	0.945	–
101.33 kPa, x1 = 0.7474	–	1.049	–
101.33 kPa, x1 = 0.843	–	1.188	–
101.33 kPa, x1 = 0.8998	–	1.246	–

CCCCCCCBr + ClC(Cl)(Cl)Cl
viscosity [mPa·s], 101 kPa
Settings	293.15 K	303.15 K	313.15 K	323.15 K
x1 = 0.123	1.015	0.878	0.769	0.677
x1 = 0.259	1.045	0.905	0.797	0.705
x1 = 0.412	1.09	0.945	0.832	0.738
x1 = 0.584	1.13	0.982	0.865	0.767

CC(=O)OC(C)C + Cc1ccccc1C
viscosity [mPa·s], 101 kPa
Settings	x1 = 0.1037	x1 = 0.2009	x1 = 0.3016	x1 = 0.4027	x1 = 0.5048	x1 = 0.6019	x1 = 0.7013	x1 = 0.8041	x1 = 0.9437
303.15 K	0.669	0.645	0.62	0.595	0.571	0.55	0.527	0.504	0.472
313.15 K	0.596	0.573	0.552	0.53	0.509	0.489	0.47	0.45	0.424

CCCC(C)O (stereo not given) + CN(C)C=O
viscosity [mPa·s], 101 kPa
Settings	x2 = 0.109	x2 = 0.1534	x2 = 0.2404	x2 = 0.345	x2 = 0.4412	x2 = 0.5603	x2 = 0.6548	x2 = 0.7436	x2 = 0.8432	x2 = 0.9376
298.15 K	2.69	2.51	2.26	2.01	1.82	1.59	1.41	1.25	1.07	0.91
303.15 K	2.23	2.05	1.84	1.65	1.51	1.33	1.21	1.08	0.96	0.84
308.15 K	1.83	1.68	1.49	1.35	1.24	1.13	1.04	0.95	0.86	0.78
313.15 K	1.54	1.4	1.24	1.13	1.05	0.97	0.91	0.86	0.79	0.72
